This assay deals with MV-4-11 cells. The assay is described as follows: Gene expression microarray analysis (Affymetrix PrimeView) and GSEA. Also on record: RFU PODN (11730768_x_at) / Fold change /veh PODN (11730768_x_at) / RFU LINC00158 (11744669_a_at) / Fold change /veh LINC00158 (11744669_a_at) / RFU DUSP10 (11751237_a_at) / Fold change /veh DUSP10 (11751237_a_at) / RFU ID3 (11757404_x_at) / Fold change /veh ID3 (11757404_x_at) / RFU PLEKHG5 (11737974_s_at) / Fold change /veh PLEKHG5 (11737974_s_at) / RFU LRRC4B (11730491_at) / Fold change /veh LRRC4B (11730491_at) / RFU GIMAP4 (11747438_a_at) / Fold change /veh GIMAP4 (11747438_a_at) / RFU KRT8 (11758183_x_at) / Fold change /veh KRT8 (11758183_x_at) / RFU CNN1 (11734310_a_at) / Fold change /veh CNN1 (11734310_a_at) / RFU VPS37D (11726825_at) / Fold change /veh VPS37D (11726825_at) / RFU C10orf10 (11716522_x_at) / Fold change /veh C10orf10 (11716522_x_at) / RFU KIR2DL2 /// KIR2DL4 /// KIR2DL5A /// KIR2DL5B /// KIR2DS1 /// KIR2DS2 /// KIR2DS3 /// KIR2DS4 /// KIR3DL3 /// KIR3DL3 /// KIR3DS1 (11738374_at) / Fold change /veh KIR2DL2 /// KIR2DL4 /// KIR2DL5A /// KIR2DL5B /// KIR2DS1 /// KIR2DS2 /// KIR2DS3 /// KIR2DS4 /// KIR3DL3 /// KIR3DL3 /// KIR3DS1 (11738374_at) / RFU C1QL1 (11718748_at) / Fold change /veh C1QL1 (11718748_at) / RFU TMPRSS4 (11747572_a_at) / Fold change /veh TMPRSS4 (11747572_a_at) / RFU HAMP (11756126_x_at) / Fold change /veh HAMP (11756126_x_at) / RFU RNFT2 (11725882_a_at) / Fold change /veh RNFT2 (11725882_a_at) / RFU NR4A2 (11747474_a_at) / Fold change /veh NR4A2 (11747474_a_at) / RFU ABCC12 (11746883_a_at) / Fold change /veh ABCC12 (11746883_a_at) / RFU TMEM136 (11760407_x_at) / Fold change /veh TMEM136 (11760407_x_at) / RFU CLDN22 /// WWC2 (11732394_at) / Fold change /veh CLDN22 /// WWC2 (11732394_at) / RFU HLA-DPB1 (11760878_x_at) / Fold change /veh HLA-DPB1 (11760878_x_at) / RFU SPINT1 (11716480_a_at) / Fold change /veh SPINT1 (11716480_a_at) / RFU GAP43 (11754022_s_at) / Fold change /veh GAP43 (11754022_s_at) / RFU A4GNT (11735810_at) / Fold change /veh A4GNT (11735810_at) / RFU PRB3 (11715151_x_at) / Fold change /veh PRB3 (11715151_x_at) / RFU TUBB4B (11761932_at) / Fold change /veh TUBB4B (11761932_at) / RFU CAPN14 (11732068_a_at) / Fold change /veh CAPN14 (11732068_a_at) / RFU TMCC2 (11721928_a_at) / Fold change /veh TMCC2 (11721928_a_at) / RFU IRGQ (11745062_a_at) / Fold change /veh IRGQ (11745062_a_at) / RFU FAM174B (11720279_a_at) / Fold change /veh FAM174B (11720279_a_at) / RFU TMPRSS4 (11748680_a_at) / Fold change /veh TMPRSS4 (11748680_a_at) / RFU FAM212B (11763350_a_at) / Fold change /veh FAM212B (11763350_a_at) / RFU PLEKHG5 (11743358_a_at) / Fold change /veh PLEKHG5 (11743358_a_at) / RFU ZSCAN30 (11745921_a_at) / Fold change /veh ZSCAN30 (11745921_a_at) / RFU CMKLR1 (11741424_a_at) / Fold change /veh CMKLR1 (11741424_a_at) / RFU LOC101060620 /// MAPK8IP1 (11723275_at) / Fold change /veh LOC101060620 /// MAPK8IP1 (11723275_at) / RFU SPTSSB (11747773_x_at) / Fold change /veh SPTSSB (11747773_x_at) / RFU PRSS12 (11739890_at) / Fold change /veh PRSS12 (11739890_at) / RFU BIN1 (11741810_x_at) / Fold change /veh BIN1 (11741810_x_at) / RFU WNT11 (11732464_a_at) / Fold change /veh WNT11 (11732464_a_at) / RFU C10orf10 (11716521_a_at) / Fold change /veh C10orf10 (11716521_a_at) / RFU C5orf56 (11738089_at) / Fold change /veh C5orf56 (11738089_at) / RFU CYB561 (11721691_x_at) / Fold change /veh CYB561 (11721691_x_at) / RFU ANKRD19P (11752326_a_at) / Fold change /veh ANKRD19P (11752326_a_at) / RFU OR2T12 /// OR2T33 /// OR2T8 (11738714_s_at) / Fold change /veh OR2T12 /// OR2T33 /// OR2T8 (11738714_s_at) / RFU VCAN (11748164_a_at) / Fold change /veh VCAN (11748164_a_at) / RFU JSRP1 (11732532_at) / Fold change /veh JSRP1 (11732532_at) / RFU KRTAP10-11 (11738290_x_at) / Fold change /veh KRTAP10-11 (11738290_x_at) / RFU MYO3A (11730013_a_at) / Fold change /veh MYO3A (11730013_a_at) / RFU EBF3 (11725865_a_at) / Fold change /veh EBF3 (11725865_a_at) / RFU CAMK2N1 (11719241_x_at) / Fold change /veh CAMK2N1 (11719241_x_at) / RFU C5orf56 (11738088_a_at) / Fold change /veh C5orf56 (11738088_a_at) / RFU OLFML3 (11715873_a_at) / Fold change /veh OLFML3 (11715873_a_at) / RFU LOC100653217 /// NTM (11731650_a_at) / Fold change /veh LOC100653217 /// NTM (11731650_a_at) / RFU MAPK11 (11762145_a_at) / Fold change /veh MAPK11 (11762145_a_at) / RFU FIZ1 (11724087_x_at) / Fold change /veh FIZ1 (11724087_x_at) / RFU OASL (11726364_x_at) / Fold change /veh OASL (11726364_x_at) / RFU SOX15 (11748057_x_at) / Fold change /veh SOX15 (11748057_x_at) / RFU CD79A (11719716_a_at) / Fold change /veh CD79A (11719716_a_at) / RFU HIST1H1D (11736915_at) / Fold change /veh HIST1H1D (11736915_at) / RFU CASKIN2 (11723855_a_at) / Fold change /veh CASKIN2 (11723855_a_at) / RFU LOC730098 (11760151_x_at) / Fold change /veh LOC730098 (11760151_x_at) / RFU OR4N2 (11742367_at) / Fold change /veh OR4N2 (11742367_at) / RFU PRRT2 (11749266_a_at) / Fold change /veh PRRT2 (11749266_a_at) / RFU SNX32 (11753110_a_at) / Fold change /veh SNX32 (11753110_a_at) / RFU CDHR5 (11726645_a_at) / Fold change /veh CDHR5 (11726645_a_at) / RFU RCAN1 (11760418_a_at) / Fold change /veh RCAN1 (11760418_a_at) / RFU FAM167A (11723789_a_at) / Fold change /veh FAM167A (11723789_a_at) / RFU FAM26E (11764081_at) / Fold change /veh FAM26E (11764081_at) / RFU ISYNA1 (11749810_s_at) / Fold change /veh ISYNA1 (11749810_s_at) / RFU ACY1 (11761880_at) / Fold change /veh ACY1 (11761880_at) / RFU 11764098_at / Fold change /veh 11764098_at / RFU SAMD14 (11745864_x_at) / Fold change /veh SAMD14 (11745864_x_at) / RFU NPB (11741838_a_at) / Fold change /veh NPB (11741838_a_at) / RFU TMPRSS6 (11731388_a_at) / Fold change /veh TMPRSS6 (11731388_a_at) / RFU KRTAP10-2 (11738614_at) / Fold change /veh KRTAP10-2 (11738614_at) / RFU ARHGAP8 /// PRR5-ARHGAP8 (11727945_x_at) / Fold change /veh ARHGAP8 /// PRR5-ARHGAP8 (11727945_x_at) / RFU KRTAP5-7 /// NADSYN1 (11734609_at) / Fold change /veh KRTAP5-7 /// NADSYN1 (11734609_at) / RFU RASL12 (11751679_a_at) / Fold change /veh RASL12 (11751679_a_at) / RFU CDKN2B (11736163_a_at) / Fold change /veh CDKN2B (11736163_a_at) / RFU PRF1 (11729649_at) / Fold change /veh PRF1 (11729649_at) / RFU, ZNF638 /// ZNF638-IT1 / Fold change vs veh, ZNF638 /// ZNF638-IT1 / RFU, PANK3 / Fold change vs veh, PANK3 / RFU, SH3YL1 / Fold change vs veh, SH3YL1 / RFU, ZEB2 / Fold change vs veh, ZEB2 / RFU, NRIP1 / Fold change vs veh, NRIP1 / RFU, PTTG1IP / Fold change vs veh, PTTG1IP / RFU, CAPN2 / Fold change vs veh, CAPN2 / RFU, MED14 / Fold change vs veh, MED14 / RFU, SNORA58 / Fold change vs veh, SNORA58 / RFU, C1orf63 / Fold change vs veh, C1orf63 / RFU, LRRFIP1 / Fold change vs veh, LRRFIP1 / RFU, NDUFAF7 / Fold change vs veh, NDUFAF7 / RFU, SLC12A2 / Fold change vs veh, SLC12A2 / RFU, IBTK / Fold change vs veh, IBTK / RFU, ESF1 / Fold change vs veh, ESF1 / Fold change vs veh, TMEM50B / RFU, TAOK1 / Fold change vs veh, TAOK1 / RFU, ACBD3 / Fold change vs veh, ACBD3 / RFU, TMA16 / Fold change vs veh, TMA16 / RFU, RWDD3 / Fold change vs veh, RWDD3 / RFU, BCAT1 / Fold change vs veh, BCAT1 / RFU, EDEM3 / Fold change vs veh, EDEM3 / RFU, TMEM33 / Fold change vs veh, TMEM33 / RFU, WDR75 / Fold change vs veh, WDR75 / RFU, AHCTF1 / Fold change vs veh, AHCTF1 / RFU, TFRC / Fold change vs veh, TFRC / RFU, ZDHHC17 / Fold change vs veh, ZDHHC17 / RFU, NOM1 / Fold change vs veh, NOM1 / RFU, ARL8B / Fold change vs veh, ARL8B / RFU, ZBTB11 / Fold change vs veh, ZBTB11 / RFU, TAMM41 / Fold change vs veh, TAMM41 / RFU, KIAA1704 /// LOC100996395 / Fold change vs veh, KIAA1704 /// LOC100996395 / RFU, ING1 / Fold change vs veh, ING1 / RFU, TRMT61B / Fold change vs veh, TRMT61B / RFU, FUBP3 / Fold change vs veh, FUBP3 / RFU, TP53 / Fold change vs veh, TP53 / RFU, TNKS2 / Fold change vs veh, TNKS2 / RFU, ZFP14 / Fold change vs veh, ZFP14 / RFU, ACTR2 / Fold change vs veh, ACTR2 / RFU, PPP3R1 / Fold change vs veh, PPP3R1 / RFU, PIK3R1 / Fold change vs veh, PIK3R1 / RFU, HNRNPA1 / Fold change vs veh, HNRNPA1 / RFU, RNF170 / Fold change vs veh, RNF170 / RFU, ZNF28 / Fold change vs veh, ZNF28 / RFU, RNGTT / Fold change vs veh, RNGTT / RFU, OGT / Fold change vs veh, OGT / RFU, BRD1 / Fold change vs veh, BRD1 / RFU, MARS / Fold change vs veh, MARS / RFU, ZNF655 / Fold change vs veh, ZNF655 / RFU, FAHD1 / Fold change vs veh, FAHD1 / RFU, BDP1 / Fold change vs veh, BDP1 / RFU, LRRCC1 / Fold change vs veh, LRRCC1 / RFU, ARID1A / Fold change vs veh, ARID1A / RFU, ZNF146 / Fold change vs veh, ZNF146 / RFU, ZNF330 / Fold change vs veh, ZNF330 / RFU, GPN3 / Fold change vs veh, GPN3 / RFU, C9orf123 / Fold change vs veh, C9orf123 / RFU, N4BP2L2 / Fold change vs veh, N4BP2L2 / RFU, ARFIP1 / Fold change vs veh, ARFIP1 / RFU, FAM179B / Fold change vs veh, FAM179B / RFU, BCL10 / Fold change vs veh, BCL10 / RFU, UHRF1BP1L / Fold change vs veh, UHRF1BP1L / RFU, BET1 / Fold change vs veh, BET1 / RFU, CNOT2 / Fold change vs veh, CNOT2 / RFU, ZNF268 / Fold change vs veh, ZNF268 / Fold change vs veh, ZNF507 / RFU, DGCR2 / Fold change vs veh, DGCR2 / RFU, WDSUB1 / Fold change vs veh, WDSUB1 / Fold change vs veh, HSP90B1 /// MIR3652 / RFU, ADSS / Fold change vs veh, ADSS / RFU, GK / Fold change vs veh, GK / RFU, ZNF148 / Fold change vs veh, ZNF148 / RFU, TAF9 / Fold change vs veh, TAF9 / RFU, SLC1A5 / Fold change vs veh, SLC1A5 / RFU, SLMO2 / Fold change vs veh, SLMO2 / RFU, ABCC4 / Fold change vs veh, ABCC4 / RFU, LOC101060439 /// RAP1B / Fold change vs veh, LOC101060439 /// RAP1B / RFU, RFX7 / Fold change vs veh, RFX7 / RFU, GTPBP10 / Fold change vs veh, GTPBP10 / RFU, CNEP1R1 / Fold change vs veh, CNEP1R1 / RFU, BIVM-ERCC5 /// ERCC5 / Fold change vs veh, BIVM-ERCC5 /// ERCC5 / RFU, ILF3 / Fold change vs veh, ILF3 / RFU 11762660_at / Fold change /veh 11762660_at / RFU VCAN (11757783_s_at) / Fold change /veh VCAN (11757783_s_at) / RFU DDX43 (11728927_at) / Fold change /veh DDX43 (11728927_at) / RFU KRT8 (11758188_x_at) / Fold change /veh KRT8 (11758188_x_at) / RFU NKD1 (11759106_at) / Fold change /veh NKD1 (11759106_at) / RFU SRD5A1 (11742802_a_at) / Fold change /veh SRD5A1 (11742802_a_at) / RFU TPSAB1 /// TPSB2 (11721975_s_at) / Fold change /veh TPSAB1 /// TPSB2 (11721975_s_at) / RFU GSTM3 (11746129_a_at) / Fold change /veh GSTM3 (11746129_a_at) / RFU IL23R (11737362_x_at) / Fold change /veh IL23R (11737362_x_at) / RFU TMEM51 (11727254_a_at) / Fold change /veh TMEM51 (11727254_a_at) / RFU PIWIL2 (11732686_x_at) / Fold change /veh PIWIL2 (11732686_x_at) / RFU ORM1 (11744905_x_at) / Fold change /veh ORM1 (11744905_x_at) / RFU CCDC152 (11743942_at) / Fold change /veh CCDC152 (11743942_at) / RFU ECM1 (11717891_a_at) / Fold change /veh ECM1 (11717891_a_at) / RFU IL23R (11748794_a_at) / Fold change /veh IL23R (11748794_a_at) / RFU TNFAIP8L3 (11732012_x_at) / Fold change /veh TNFAIP8L3 (11732012_x_at) / RFU MBOAT4 (11741988_at) / Fold change /veh MBOAT4 (11741988_at) / RFU 11764193_at / Fold change /veh 11764193_at / RFU TMEM53 (11763286_at) / Fold change /veh TMEM53 (11763286_at) / RFU MAGEB2 (11727129_at) / Fold change /veh MAGEB2 (11727129_at) / RFU TMEM200A (11744735_a_at) / Fold change /veh TMEM200A (11744735_a_at) / RFU CCDC152 (11751479_a_at) / Fold change /veh CCDC152 (11751479_a_at) / RFU FAM211A (11726209_a_at) / Fold change /veh FAM211A (11726209_a_at) / RFU RGS16 (11746705_a_at) / Fold change /veh RGS16 (11746705_a_at) / RFU VCAN (11755009_s_at) / Fold change /veh VCAN (11755009_s_at) / RFU RHOB (11743442_s_at) / Fold change /veh RHOB (11743442_s_at) / RFU RGS16 (11720943_a_at) / Fold change /veh RGS16 (11720943_a_at) / RFU RGS16 (11720944_at) / Fold change /veh RGS16 (11720944_at) / RFU, VPS4B / Fold change vs veh, VPS4B / RFU, CREB1 / Fold change vs veh, CREB1 / RFU, DNAJC13 / Fold change vs veh, DNAJC13 / RFU, GNAQ / Fold change vs veh, GNAQ / RFU, CDK5R1 / Fold change vs veh, CDK5R1 / RFU, ZRANB3 / Fold change vs veh, ZRANB3 / RFU, CUL4A / Fold change vs veh, CUL4A / RFU, CCNY / Fold change vs veh, CCNY / RFU, UFL1 / Fold change vs veh, UFL1 / RFU, COG3 / Fold change vs veh, COG3 / RFU, DIAPH2 / Fold change vs veh, DIAPH2 / RFU, SKA2 / Fold change vs veh, SKA2 / RFU, AFF3 / Fold change vs veh, AFF3 / RFU, LMF1 / Fold change vs veh, LMF1 / RFU, IPO11 / Fold change vs veh, IPO11 / RFU, DFFB / Fold change vs veh, DFFB / RFU, FOXP1 / Fold change vs veh, FOXP1 / RFU, CARD8 / Fold change vs veh, CARD8 / RFU, STRN3 / Fold change vs veh, STRN3 / RFU, ADK / Fold change vs veh, ADK / RFU, RASSF2 / Fold change vs veh, RASSF2 / RFU, WIPF1 / Fold change vs veh, WIPF1 / RFU, LARP1B / Fold change vs veh, LARP1B / RFU, RASA1 / Fold change vs veh, RASA1 / RFU, RB1 / Fold change vs veh, RB1 / RFU, PPFIA1 / Fold change vs veh, PPFIA1 / RFU, MAT2A / Fold change vs veh, MAT2A / RFU, CCT5 / Fold change vs veh, CCT5 / RFU, WDR92 / Fold change vs veh, WDR92 / RFU, CUX1 / Fold change vs veh, CUX1 / RFU, TTC7A / Fold change vs veh, TTC7A / RFU, TMEM135 / Fold change vs veh, TMEM135 / RFU, DEPTOR / Fold change vs veh, DEPTOR / RFU, CPM / Fold change vs veh, CPM / RFU, DNAJB6 / Fold change vs veh, DNAJB6 / RFU, CACNA2D3 / Fold change vs veh, CACNA2D3 / RFU, DTX4 / Fold change vs veh, DTX4 / RFU, TFCP2 / Fold change vs veh, TFCP2 / RFU, GMCL1 /// GMCL1P1 / Fold change vs veh, GMCL1 /// GMCL1P1 / RFU, AEBP2 / Fold change vs veh, AEBP2 / RFU, SNHG1 /// SNORD22 /// SNORD25 /// SNORD26 /// SNORD27 /// SNORD28 /// SNORD29 /// SNORD31 / Fold change vs veh, SNHG1 /// SNORD22 /// SNORD25 /// SNORD26 /// SNORD27 /// SNORD28 /// SNORD29 /// SNORD31 / Fold change (Aza/veh), C12orf56 (ProbeSet 11735607_a_at) / Fold change (ACY-1035/veh), C12orf56 (ProbeSet 11735607_a_at) / Fold change (Aza/veh), FGFR1OP (ProbeSet 11751329_s_at) / Fold change (ACY-1035/veh), FGFR1OP (ProbeSet 11751329_s_at) / Fold change (Aza/veh), VPS36 (ProbeSet 11739960_a_at) / Fold change (ACY-1035/veh), VPS36 (ProbeSet 11739960_a_at) / RFU SYPL1 (11715823_x_at) / Fold change /veh SYPL1 (11715823_x_at) / RFU IGFBP7 (11715501_s_at) / Fold change /veh IGFBP7 (11715501_s_at) / RFU REEP3 (11722064_at) / Fold change /veh REEP3 (11722064_at) / RFU IGLL1 (11728026_x_at) / Fold change /veh IGLL1 (11728026_x_at): dose or concentration left out as unconfirmed. The following applies: MV-4-11 cells, 48 hours. The format is cell-based, human.

Each structure is given as a SMILES string.

Turning to `Nc1ncn([C@@H]2O[C@H](CO)[C@@H](O)[C@H]2O)c(=O)n1` [azacitidine], the “Fold change /veh NPB (11741838_a_at)” value was 0.96.

The values above are taken from paper PMC5218480 (PLoS ONE, 2017).
